Reference: the NIST ThermoML archive (doi:10.1016/j.jct.2014.01.012)
± gives the expanded uncertainty stated by the source.

Test: xn = mol fraction of the nth substance listed
Details: 101 kPa, Liquid; for speed of sound: Sing-around technique in a fixed-path interferometer; for mass density: Vibrating tube method

CCCCCCn1cc[n+](C)c1.F[P-](F)(F)(F)(F)F [1-hexyl-3-methylimidazolium hexafluorophosphate] + CCOC(C)=O
Details	mass density [kg/m3]	speed of sound [m/s]
293.15 K, x1 = 0.09053	985.573 ± 0.22	1203.8 ± 1.3
293.15 K, x1 = 0.1751	1047.27 ± 0.3	1245.1 ± 1.4
293.15 K, x1 = 0.2748	1103.27 ± 0.49	1278.6 ± 1.6
293.15 K, x1 = 0.3638	1142.32 ± 0.72	1312.1 ± 1.8
293.15 K, x1 = 0.4747	1181.82 ± 1.1	1341.9 ± 2
293.15 K, x1 = 0.5959	1215.82 ± 1.6	1369.5 ± 2.3
293.15 K, x1 = 0.6988	1239.42 ± 2.1	1390.2 ± 2.5
293.15 K, x1 = 0.7782	1254.92 ± 2.6	1404.4 ± 2.7
293.15 K, x1 = 0.8784	1272.57 ± 3.3	1417.2 ± 2.9
293.15 K, x1 = 0.9562	1285.17 ± 3.8	1428.1 ± 3.1
293.15 K, x1 = 1	1291.38 ± 4.2	1436.9 ± 3.2
298.15 K, x1 = 0.09053	980.708 ± 0.23	1182.9 ± 1.3
298.15 K, x1 = 0.1751	1042.71 ± 0.29	1226 ± 1.4
298.15 K, x1 = 0.2748	1098.95 ± 0.48	1260.9 ± 1.6
298.15 K, x1 = 0.3638	1138.08 ± 0.72	1295.7 ± 1.8
298.15 K, x1 = 0.4747	1177.55 ± 1.1	1326.9 ± 2
298.15 K, x1 = 0.5959	1211.68 ± 1.6	1355.6 ± 2.3
298.15 K, x1 = 0.6988	1235.47 ± 2.1	1376.8 ± 2.5
298.15 K, x1 = 0.7782	1251.3 ± 2.6	1388.5 ± 2.7
298.15 K, x1 = 0.8784	1269.1 ± 3.2	1402.5 ± 2.9
298.15 K, x1 = 0.9562	1281.27 ± 3.8	1414.1 ± 3.1
298.15 K, x1 = 1	1287.34 ± 4.1	1423.5 ± 3.2
303.15 K, x1 = 0.09053	975.56 ± 0.23	1162.1 ± 1.3
303.15 K, x1 = 0.1751	1037.99 ± 0.29	1207 ± 1.4
303.15 K, x1 = 0.2748	1094.55 ± 0.48	1243.1 ± 1.6
303.15 K, x1 = 0.3638	1133.41 ± 0.71	1279.1 ± 1.8
303.15 K, x1 = 0.4747	1173.05 ± 1.1	1312.1 ± 2
303.15 K, x1 = 0.5959	1207.51 ± 1.6	1341.7 ± 2.3
303.15 K, x1 = 0.6988	1231.55 ± 2.1	1363.6 ± 2.5
303.15 K, x1 = 0.7782	1247.62 ± 2.6	1375.4 ± 2.7
303.15 K, x1 = 0.8784	1265.46 ± 3.2	1388.1 ± 2.9
303.15 K, x1 = 0.9562	1277.49 ± 3.8	1402.6 ± 3.1
303.15 K, x1 = 1	1283.29 ± 4.1	1410.6 ± 3.2
308.15 K, x1 = 0.09053	970.46 ± 0.23	1141.5 ± 1.3
308.15 K, x1 = 0.1751	1033.19 ± 0.29	1188.2 ± 1.4
308.15 K, x1 = 0.2748	1089.85 ± 0.47	1225.7 ± 1.6
308.15 K, x1 = 0.3638	1128.89 ± 0.7	1261.3 ± 1.8
308.15 K, x1 = 0.4747	1168.92 ± 1.1	1297.4 ± 2
308.15 K, x1 = 0.5959	1203.51 ± 1.6	1328 ± 2.3
308.15 K, x1 = 0.6988	1227.75 ± 2.1	1350.6 ± 2.5
308.15 K, x1 = 0.7782	1243.95 ± 2.5	1365 ± 2.7
308.15 K, x1 = 0.8784	1261.82 ± 3.2	1375.1 ± 2.9
308.15 K, x1 = 0.9562	1273.69 ± 3.8	1391 ± 3.1
308.15 K, x1 = 1	1279.4 ± 4.1	1398.2 ± 3.2
313.15 K, x1 = 0.09053	964.46 ± 0.23	1120.9 ± 1.3
313.15 K, x1 = 0.1751	1027.59 ± 0.28	1169.4 ± 1.4
313.15 K, x1 = 0.2748	1084.79 ± 0.47	1208.5 ± 1.6
313.15 K, x1 = 0.3638	1124.28 ± 0.7	1246.5 ± 1.8
313.15 K, x1 = 0.4747	1164.75 ± 1.1	1282.8 ± 2
313.15 K, x1 = 0.5959	1199.65 ± 1.6	1313.8 ± 2.3
313.15 K, x1 = 0.6988	1224.15 ± 2.1	1337.7 ± 2.5
313.15 K, x1 = 0.7782	1240.32 ± 2.5	1349.8 ± 2.7
313.15 K, x1 = 0.8784	1258.46 ± 3.2	1359.6 ± 2.9
313.15 K, x1 = 0.9562	1270.35 ± 3.7	1378 ± 3.1
313.15 K, x1 = 1	1275.48 ± 4.1	1386 ± 3.2
318.15 K, x1 = 0.09053	960.532 ± 0.23	1100.5 ± 1.3
318.15 K, x1 = 0.1751	1023.8 ± 0.28	1150.8 ± 1.4
318.15 K, x1 = 0.2748	1080.46 ± 0.46	1191.3 ± 1.6
318.15 K, x1 = 0.3638	1119.61 ± 0.69	1231.9 ± 1.8
318.15 K, x1 = 0.4747	1160.23 ± 1.1	1268.4 ± 2
318.15 K, x1 = 0.5959	1195.59 ± 1.6	1300.3 ± 2.3
318.15 K, x1 = 0.6988	1220.56 ± 2.1	1324.8 ± 2.5
318.15 K, x1 = 0.7782	1236.86 ± 2.5	1337.1 ± 2.7
318.15 K, x1 = 0.8784	1254.52 ± 3.2	1348.4 ± 2.9
318.15 K, x1 = 0.9562	1266.02 ± 3.7	1366 ± 3.1
318.15 K, x1 = 1	1271.56 ± 4	1374.2 ± 3.2
323.15 K, x1 = 0.09053	955.246 ± 0.24	1080.2 ± 1.3
323.15 K, x1 = 0.1751	1018.76 ± 0.28	1132.3 ± 1.4
323.15 K, x1 = 0.2748	1075.54 ± 0.46	1174.3 ± 1.6
323.15 K, x1 = 0.3638	1114.9 ± 0.68	1216.3 ± 1.8
323.15 K, x1 = 0.4747	1155.92 ± 1	1254.2 ± 2
323.15 K, x1 = 0.5959	1191.86 ± 1.5	1287.2 ± 2.3
323.15 K, x1 = 0.6988	1217.05 ± 2.1	1311.7 ± 2.5
323.15 K, x1 = 0.7782	1233.69 ± 2.5	1324.4 ± 2.7
323.15 K, x1 = 0.8784	1251.25 ± 3.1	1335.4 ± 2.9
323.15 K, x1 = 0.9562	1262.25 ± 3.7	1355.1 ± 3.1
323.15 K, x1 = 1	1267.63 ± 4	1362.5 ± 3.2
